Experimental data taken from the supplement of paper PMC6045584.
± gives the standard deviation of the averaged measurements.

Tests used:
BMN-673 = compound: Cn1ncnc1[C@H]1c2n[nH]c(=O)c3cc(F)cc(c23)N[C@@H]1c1ccc(F)cc1 [BMN-673]; test: surviving fraction relative to DMSO-only wells; higher = less growth inhibition; conditions: exposure time: 5 days
Outline: (§1)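 Viability was determined by CellTiter-Glo luminescence, expressed as surviving fraction normalised to the median of DMSO-only wells. The cells were log-phase tumour cell lines seeded at 250–500 per well in 384-well plates and, after 24 hours, exposed continuously for five days to inhibitors at 0.5, 1, 5, 10, 50, 100, 500 and 1000 nM. Three screens per line were run, keeping only lines with replicate Pearson r >0.7 and median Z' >0.3.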

[1] = compound: COc1ccc(-c2cc3c(C)nc(N)nc3n([C@H]3CC[C@H](OCCO)CC3)c2=O)cn1; test: as above; conditions: exposure time: 5 days
Outline: as §1

“JURKAT HAEMATOPOIETIC AND LYMPHOID TISSUE” was tested. Which surviving fraction (BMN-673; 0.5 nM) did it give?
Its surviving fraction is 1.04 ± 0.027.

And the surviving fraction (BMN-673; 1 nM)?
The surviving fraction was 1.04 ± 0.015.

And the surviving fraction (BMN-673; 5 nM)?
The surviving fraction was 0.863 ± 0.035.

What about the surviving fraction (BMN-673; 10 nM) of the same test system?
The surviving fraction was 0.838 ± 0.014.

What about the surviving fraction (BMN-673; 50 nM) of the same test system?
The surviving fraction was 0.601 ± 0.049.

And the surviving fraction (BMN-673; 100 nM)?
The surviving fraction was 0.503 ± 0.033.

And the surviving fraction (BMN-673; 500 nM)?
The surviving fraction was 0.123 ± 0.007.

What about the surviving fraction (BMN-673; 1000 nM) of the same test system?
The surviving fraction was 0.0493 ± 0.0047.

What about the surviving fraction ([1]; 0.5 nM) of the same test system?
The surviving fraction was 1.07 ± 0.026.

And the surviving fraction ([1]; 1 nM)?
Its surviving fraction is 1.09 ± 0.024.

And the surviving fraction ([1]; 5 nM)?
Its surviving fraction is 1.04 ± 0.021.

What about the surviving fraction ([1]; 10 nM) of the same test system?
The surviving fraction was 1 ± 0.022.

And the surviving fraction ([1]; 50 nM)?
The surviving fraction was 0.741 ± 0.017.

And the surviving fraction ([1]; 100 nM)?
Its surviving fraction is 0.57 ± 0.013.

What about the surviving fraction ([1]; 500 nM) of the same test system?
The surviving fraction was 0.213 ± 0.011.

What about the surviving fraction ([1]; 1000 nM) of the same test system?
The surviving fraction was 0.135 ± 0.0042.

How did the surviving fraction (BMN-673; 0.5 nM) turn out when KPD BONE was run?
The surviving fraction was 0.971 ± 0.046.

What about the surviving fraction (BMN-673; 1 nM) of the same test system?
Its surviving fraction is 0.877 ± 0.053.

And the surviving fraction (BMN-673; 5 nM)?
Its surviving fraction is 0.814 ± 0.045.

And the surviving fraction (BMN-673; 10 nM)?
Its surviving fraction is 0.463 ± 0.28.

What about the surviving fraction (BMN-673; 50 nM) of the same test system?
The surviving fraction was 0.531 ± 0.03.

And the surviving fraction (BMN-673; 100 nM)?
The surviving fraction was 0.437 ± 0.02.

What about the surviving fraction (BMN-673; 500 nM) of the same test system?
The surviving fraction was 0.338 ± 0.01.

What about the surviving fraction (BMN-673; 1000 nM) of the same test system?
Its surviving fraction is 0.3337 ± 0.0032.

What about the surviving fraction ([1]; 0.5 nM) of the same test system?
The surviving fraction was 0.973 ± 0.033.

What about the surviving fraction ([1]; 1 nM) of the same test system?
Its surviving fraction is 0.95 ± 0.056.

And the surviving fraction ([1]; 5 nM)?
The surviving fraction was 0.908 ± 0.032.

And the surviving fraction ([1]; 10 nM)?
The surviving fraction was 0.852 ± 0.032.

What about the surviving fraction ([1]; 50 nM) of the same test system?
The surviving fraction was 0.486 ± 0.028.

And the surviving fraction ([1]; 100 nM)?
The surviving fraction was 0.313 ± 0.019.

What about the surviving fraction ([1]; 500 nM) of the same test system?
The surviving fraction was 0.0613 ± 0.0067.

What about the surviving fraction ([1]; 1000 nM) of the same test system?
The surviving fraction was 0.038 ± 0.0046.

Which results are given for LM7 BONE?
surviving fraction (BMN-673; 0.5 nM): 0.975 ± 0.042; surviving fraction (BMN-673; 1 nM): 0.987 ± 0.068; surviving fraction (BMN-673; 5 nM): 0.764 ± 0.051; surviving fraction (BMN-673; 10 nM): 0.573 ± 0.028; surviving fraction (BMN-673; 50 nM): 0.395 ± 0.027; surviving fraction (BMN-673; 100 nM): 0.312 ± 0.028; surviving fraction (BMN-673; 500 nM): 0.227 ± 0.015; surviving fraction (BMN-673; 1000 nM): 0.197 ± 0.024; surviving fraction ([1]; 0.5 nM): 0.996 ± 0.022; surviving fraction ([1]; 1 nM): 0.896 ± 0.031; surviving fraction ([1]; 5 nM): 0.947 ± 0.019; surviving fraction ([1]; 10 nM): 0.906 ± 0.057; surviving fraction ([1]; 50 nM): 0.691 ± 0.023; surviving fraction ([1]; 100 nM): 0.578 ± 0.022; surviving fraction ([1]; 500 nM): 0.205 ± 0.012; surviving fraction ([1]; 1000 nM): 0.0677 ± 0.005

LNCAP PROSTATE was tested. Which surviving fraction (BMN-673; 0.5 nM) did it give?
The surviving fraction was 0.85 ± 0.052.

What about the surviving fraction (BMN-673; 1 nM) of the same test system?
Its surviving fraction is 0.849 ± 0.05.

What about the surviving fraction (BMN-673; 5 nM) of the same test system?
The surviving fraction was 0.604 ± 0.059.

What about the surviving fraction (BMN-673; 10 nM) of the same test system?
The surviving fraction was 0.407 ± 0.037.

And the surviving fraction (BMN-673; 50 nM)?
Its surviving fraction is 0.297 ± 0.015.

What about the surviving fraction (BMN-673; 100 nM) of the same test system?
Its surviving fraction is 0.254 ± 0.0095.

And the surviving fraction (BMN-673; 500 nM)?
The surviving fraction was 0.181 ± 0.014.

What about the surviving fraction (BMN-673; 1000 nM) of the same test system?
The surviving fraction was 0.165 ± 0.022.

And the surviving fraction ([1]; 0.5 nM)?
Its surviving fraction is 0.877 ± 0.095.

What about the surviving fraction ([1]; 1 nM) of the same test system?
Its surviving fraction is 0.872 ± 0.045.

What about the surviving fraction ([1]; 5 nM) of the same test system?
The surviving fraction was 0.759 ± 0.026.

What about the surviving fraction ([1]; 10 nM) of the same test system?
The surviving fraction was 0.622 ± 0.041.

What about the surviving fraction ([1]; 50 nM) of the same test system?
The surviving fraction was 0.226 ± 0.024.

And the surviving fraction ([1]; 100 nM)?
Its surviving fraction is 0.099 ± 0.012.

What about the surviving fraction ([1]; 500 nM) of the same test system?
Its surviving fraction is 0.0437 ± 0.0051.

What about the surviving fraction ([1]; 1000 nM) of the same test system?
The surviving fraction was 0.035 ± 0.0044.

Which results are given for MCF7 BREAST?
surviving fraction (BMN-673; 0.5 nM): 0.952 ± 0.053; surviving fraction (BMN-673; 1 nM): 0.95 ± 0.069; surviving fraction (BMN-673; 5 nM): 0.838 ± 0.029; surviving fraction (BMN-673; 10 nM): 0.802 ± 0.046; surviving fraction (BMN-673; 50 nM): 0.756 ± 0.03; surviving fraction (BMN-673; 100 nM): 0.732 ± 0.026; surviving fraction (BMN-673; 500 nM): 0.679 ± 0.024; surviving fraction (BMN-673; 1000 nM): 0.62 ± 0.011; surviving fraction ([1]; 0.5 nM): 0.875 ± 0.029; surviving fraction ([1]; 1 nM): 0.851 ± 0.016; surviving fraction ([1]; 5 nM): 0.807 ± 0.027; surviving fraction ([1]; 10 nM): 0.764 ± 0.058; surviving fraction ([1]; 50 nM): 0.527 ± 0.0077; surviving fraction ([1]; 100 nM): 0.358 ± 0.0078; surviving fraction ([1]; 500 nM): 0.185 ± 0.0036; surviving fraction ([1]; 1000 nM): 0.181 ± 0.0076

Which results are given for MDAMB134 BREAST?
surviving fraction (BMN-673; 0.5 nM): 0.955 ± 0.085; surviving fraction (BMN-673; 1 nM): 0.908 ± 0.14; surviving fraction (BMN-673; 5 nM): 0.971 ± 0.057; surviving fraction (BMN-673; 10 nM): 0.929 ± 0.014; surviving fraction (BMN-673; 50 nM): 1.01 ± 0.067; surviving fraction (BMN-673; 100 nM): 0.991 ± 0.025; surviving fraction (BMN-673; 500 nM): 0.857 ± 0.23; surviving fraction (BMN-673; 1000 nM): 0.775 ± 0.08; surviving fraction ([1]; 0.5 nM): 0.973 ± 0.12; surviving fraction ([1]; 1 nM): 0.869 ± 0.11; surviving fraction ([1]; 5 nM): 0.864 ± 0.061; surviving fraction ([1]; 10 nM): 0.839 ± 0.19; surviving fraction ([1]; 50 nM): 0.639 ± 0.11; surviving fraction ([1]; 100 nM): 0.682 ± 0.064; surviving fraction ([1]; 500 nM): 0.361 ± 0.0042; surviving fraction ([1]; 1000 nM): 0.293 ± 0.05

What does the source list for MDAMB157 BREAST?
surviving fraction (BMN-673; 0.5 nM): 0.999 ± 0.13; surviving fraction (BMN-673; 1 nM): 0.944 ± 0.081; surviving fraction (BMN-673; 5 nM): 0.844 ± 0.084; surviving fraction (BMN-673; 10 nM): 0.795 ± 0.1; surviving fraction (BMN-673; 50 nM): 0.541 ± 0.01; surviving fraction (BMN-673; 100 nM): 0.392 ± 0.01; surviving fraction (BMN-673; 500 nM): 0.228 ± 0.017; surviving fraction (BMN-673; 1000 nM): 0.257 ± 0.036; surviving fraction ([1]; 0.5 nM): 0.899 ± 0.061; surviving fraction ([1]; 1 nM): 0.963 ± 0.12; surviving fraction ([1]; 5 nM): 0.802 ± 0.051; surviving fraction ([1]; 10 nM): 0.812 ± 0.042; surviving fraction ([1]; 50 nM): 0.705 ± 0.079; surviving fraction ([1]; 100 nM): 0.618 ± 0.088; surviving fraction ([1]; 500 nM): 0.432 ± 0.042; surviving fraction ([1]; 1000 nM): 0.332 ± 0.02

With MDAMB231 BREAST as the test system, how does the surviving fraction (BMN-673; 0.5 nM) read?
Its surviving fraction is 0.98 ± 0.029.

What about the surviving fraction (BMN-673; 1 nM) of the same test system?
Its surviving fraction is 0.972 ± 0.02.

What about the surviving fraction (BMN-673; 5 nM) of the same test system?
The surviving fraction was 0.898 ± 0.019.

And the surviving fraction (BMN-673; 10 nM)?
Its surviving fraction is 0.838 ± 0.022.

What about the surviving fraction (BMN-673; 50 nM) of the same test system?
The surviving fraction was 0.711 ± 0.053.

And the surviving fraction (BMN-673; 100 nM)?
Its surviving fraction is 0.639 ± 0.011.

What about the surviving fraction (BMN-673; 500 nM) of the same test system?
Its surviving fraction is 0.523 ± 0.021.

And the surviving fraction (BMN-673; 1000 nM)?
Its surviving fraction is 0.454 ± 0.03.

What about the surviving fraction ([1]; 0.5 nM) of the same test system?
The surviving fraction was 0.98 ± 0.011.

What about the surviving fraction ([1]; 1 nM) of the same test system?
Its surviving fraction is 0.985 ± 0.021.

What about the surviving fraction ([1]; 5 nM) of the same test system?
The surviving fraction was 0.949 ± 0.016.

And the surviving fraction ([1]; 10 nM)?
Its surviving fraction is 0.902 ± 0.018.

What about the surviving fraction ([1]; 50 nM) of the same test system?
The surviving fraction was 0.645 ± 0.0077.

What about the surviving fraction ([1]; 100 nM) of the same test system?
Its surviving fraction is 0.495 ± 0.013.

And the surviving fraction ([1]; 500 nM)?
The surviving fraction was 0.182 ± 0.0094.

And the surviving fraction ([1]; 1000 nM)?
The surviving fraction was 0.145 ± 0.0081.
